# Source: PMC3781849 (Journal of Clinical Pharmacology, 2013)
# “And” between values parts separate entries of the source, which are not always exact repeats. Equal values may be shown once. “Also recorded” adds a separate entry of the source. Read-outs that look alike come from different tables or passages of the source.
# Assays:
# [1] = earlier studies; cited from earlier work
# [2] = Safety and tolerability in the ponatinib ± ketoconazole crossover study
# [3] = cited from earlier work
# [4] = rats; preclinical studies; cited from earlier work
# [5] = monkeys; preclinical studies; cited from earlier work
# [6] = system: cells expressing all BCR-ABL mutants tested, including the T315I gatekeeper mutant; details: preclinical; includes T315I; cited from earlier work
# [7] = single 45-mg oral dose of 14C-labeled ponatinib, healthy volunteers; cited from earlier work
# [8] = for Cmax: geometric mean (%CV, n)
# [9] = bosutinib + ketoconazole 400 mg once daily; cited from earlier work
# [10] = dasatinib + ketoconazole 200 mg twice daily; cited from earlier work
# [11] = nilotinib + ketoconazole 400 mg once daily; cited from earlier work
# [12] = ponatinib alone, 2 of 23 subjects
# [13] = ponatinib with ketoconazole, 2 of 23 subjects
# [14] = ponatinib + ketoconazole vs ponatinib alone
# [15] = ponatinib + ketoconazole vs ponatinib alone, from estimated mean ratio
smiles,measurement,setting,value
Cc1ccc(C(=O)Nc2ccc(CN3CCNCC3)c(C(F)(F)F)c2)cc1C#Cc1cnc2cccnn12 [AP24567],"Potency, less potent than ponatinib",[1],4 fold
Cc1ccc(C(=O)O)cc1C#Cc1cnc2cccnn12 [AP24600],Pharmacological activity,[1],pharmacologically inactive
Cc1ccc(C(=O)Nc2ccc(CN3CCN(C)CC3)c(C(F)(F)F)c2)cc1C#Cc1cnc2cccnn12 [Ponatinib],Serious AEs,[2]; both regimens,no serious AEs
same,Subjects with at least one drug-related AE,[2]; both regimens,Nine
same,"Vital sign, ECG, physical examination findings",[2]; both regimens,"No treatment-related or clinically significant vital sign, ECG, or physical examination findings"
same,Subjects with at least one treatment-emergent adverse event,"[2]; of 23 subjects, both regimens, all mild",Eleven
same,Tolerability,"[2]; ponatinib 15 mg, both alone and in combination with ketoconazole",generally well tolerated
same,Increased lipase (TEAE),[2]; [12],8.7%
same,Somnolence (TEAE),[2]; [12],8.7%
same,Headache (TEAE),[2]; [13],8.7%
same,Somnolence (TEAE),[2]; [13],8.7%
same,Steady-state trough plasma concentration,[3]; daily doses of 30 mg,> 40 nM
same,Accumulation of AUC from first dose to steady-state,[3]; once-daily ponatinib 45 mg,approximately 1.5 fold
same,"Steady-state trough concentration, geometric mean",[3]; once-daily ponatinib 45 mg,64 nM and 34.2 ng/mL
same,Dose proportionality of exposure (Cmax and AUC),"[3]; patients, initial dose and steady-state, doses 2 to 60 mg",approximately dose-proportional
same,Time of maximum plasma levels,"[3]; patients, oral once-daily ponatinib, postdose",approximately 4 hours
same,Elimination half-life,"[3]; ponatinib 45 mg, patients",approximately 22 hours
same,Relation to maximum tolerated dose,"[3]; ponatinib 60 mg daily, phase 1 study",exceeded the maximum tolerated dose
same,Absolute oral bioavailability,[4],54%
same,Absolute oral bioavailability,[5],20%
same,Concentration sufficient to inhibit viability of cells expressing all BCR-ABL mutants tested and to suppress emergence of mutant clones,[6],40 nM
same,Total radioactivity recovered in feces,[7],87%
same,Total radioactivity recovered in urine,[7],5%
same,AUC(0-inf),"[8]; human, in vivo, 15 mg",472 ng·h/mL
same,AUC(0-t),"[8]; human, in vivo, 15 mg",414 ng·h/mL
same,half-life,"[8]; human, in vivo, 15 mg",35.3 h
same,Cmax,"[8]; human, in vivo, 15 mg, Cmax, ponatinib 15 mg alone",16.1 ng/mL
same,Tmax,"[8]; human, in vivo, po, 15 mg",~6 h
same,Cmax,[8]; ponatinib 15 mg + ketoconazole 400 mg daily,"23.6 (30.7, 22) ng/mL"
same,Cmax,[8]; ponatinib 15 mg alone,"16.1 (36.0, 22) ng/mL"
same,Effect of ketoconazole on t1/2 / terminal elimination,[8]; [14],not essentially affected; also recorded: did not affect
same,Effect of ketoconazole on tmax,[8]; [14],not affected; also recorded: did not affect
same,"Increase in exposure, Cmax",[8]; [14],47%
same,"Increase in exposure, AUC0–t",[8]; [15],70%
same,"Increase in exposure, AUC0–∞",[8]; [15],78%
same,Time at which mean plasma concentrations reached a maximum,"[8]; single oral dose of 15 mg, independent of ketoconazole coadministration",5 to 6 h
COc1cc(Nc2c(C#N)cnc3cc(OCCCN4CCN(C)CC4)c(OC)cc23)c(Cl)cc1Cl [bosutinib],Decrease in apparent clearance,[9],9 fold
same,Increase in AUC0–t,[9],7.6 fold
same,Increase in AUC0–∞,[9],8.6 fold
same,Increase in Cmax,[9],5.2 fold
same,Prolongation of t1/2,[9],22.8 h
Cc1nc(Nc2ncc(C(=O)Nc3c(C)cccc3Cl)s2)cc(N2CCN(CCO)CC2)n1 [dasatinib],Increase in AUC,[10],4.8 fold
same,Increase in Cmax,[10],3.6 fold
same,Prolongation of t1/2,[10],5.4 h
Cc1cn(-c2cc(NC(=O)c3ccc(C)c(Nc4nccc(-c5cccnc5)n4)c3)cc(C(F)(F)F)c2)cn1 [nilotinib],Decrease in apparent clearance,[11],2.5 fold
same,Increase in AUC0–t,[11],1.8 fold
same,Increase in AUC0–∞,[11],3 fold
same,Increase in t1/2,[11],17.5 h
